Counter-ions that a name gives are not always drawn.
Experiments:
[1] = biological target: T1, [NEK7]-[compound of formula (I)]-[CRBN/DDB1] complex (Homo sapiens, UniProt Q8TDX7+Q96SW2); assay: AlphaLISA dose response ternary complex formation assay; type: binding; conditions: 1 μM compound, normalized to maximum signal of Compound 2 (positive control) and DMSO background; for activation at 1 µM: read-out: Normalized AlphaLISA ternary complex average signal at 1 μM molecule
Experimental: The effect of the molecular glue compounds of the invention on the formation of a ternary complex composed of [NEK7]-[compound of formula (I)]-[CRBN/DDB1] was investigated with two methods: AlphaLISA dose response assay or HTRF ternary complex assay.
Two types of protein solution were prepared: • 200 nM biotinylated NEK7, 40 μg/ml AlphaScreen Streptavidin-coated Donor Beads in HBS (10 mM HEPES, 150 mM NaCL, pH 7.4) buffer with 0.1% Tween-20 and 1 mM DTT, • 200 nM 6×His-CRBN/Strep-DDB1, 40 μg/ml AlphaLISA Anti-6×His Acceptor beads in HBS buffer with 0.1% Tween-20 and 1 mM DTT.
The prepared solutions were incubated at room temperature for 30 min and then the solution containing the donor beads was mixed with the solution containing the acceptor beads.
The tested compounds were dispensed onto a white 384-well AlphaPlate 384 SW. DMSO was backfilled to all wells, resulting in a final DMSO content of 2%. Wells containing only DMSO served as background. Next, 10 μl of solution with donor and acceptor beads was added to the wells.
The plate was sealed with transparent film and shaken using a VibroTurbulator for 60 sec at room temperature, level 3. The plate was then spun down shortly (10 s, 1000 rcf, room temperature) and incubated at 25° C. for 30 min.
The read-out was performed with PerkinElmer Enspire Multimode Plate Reader (method for AlphaLISA 384-well low volume, Filterset: λexc=680 nm, λem=615 nm).
The results were analyzed as follows: • 1) an average of luminescence for background signal was calculated and used as a negative control; • 2) average of the maximum measured luminescence for Compound 2 was calculated and used as an internal positive control; • 3) raw luminescence values were normalized against positive and negative controls; • 4) Normalized responses to Compound 2 were determined.

NEK7-HiBiT protein = NEK7-HiBiT protein (Homo sapiens, UniProt Q8TDX7); assay: NEK7-HiBiT degradation assay (Nano-Glo HiBiT Lytic Assay) in HEK293 NEK7-HiBiT cells; type: cell-based; conditions: 24 h, conc. 0.1, 1 and 10 μM tested, concentration of the table values not stated, mean of 3 technical replicates
Experimental: HEK293 NEK7-HiBiT cells were generated using CRISPR-Cas9 system. HEK293 cells were transformed with pSpCas9-BB-2A-Puro v2.0 plasmid carrying gRNA targeting the N-terminus of NEK7 and ssODN template containing the HiBiT tag sequence with flanking homology sequences. Neon Transfection System (Thermo Fisher Scientific) was used for electroporation. HEK293 NEK7-HiBiT cells were cultured with DMEM Glutamax (Gibco) supplemented with 10% heat inactivated FBS (Gibco). After transfection the culture medium was changed to DMEM Glutamax with 10% heat-inactivated FBS and 1% Penicillin-Streptomycin (Biowest) supplemented with Puromycin (2 μg/ml; Invivogen) for clonal selection. In order to isolate single cell clones for further validation and analysis, limiting dilution cloning in 96-well plates was performed. When the single clones reached confluency, HiBiT Lytic Assay (Promega) was performed in order to identify HiBiT positive clones. The clone selected for further studies was verified and validated using genotyping and HiBiT Blotting (Promega).
Selected clone of HEK293 NEK7-HiBiT cells was maintained in the DMEM-Glutamax medium supplemented with 10% of heat-inactivated FBS (Gibco) and 1% of Penicillin-Streptomycin Solution 100x (Biowest) at 37° C., 5% CO2 and subcultured every 2-3 days.
For Nano-Glo HiBiT Lytic Assay HEK293 NEK7-HiBiT cells were seeded at the density 2×10^3 cells in triplicates in the 40 μL of growth medium per single well on 384 well plate (Greiner Bio-One). Compounds or DMSO were added to treatment plates using Echo555 Liquid Handler and incubated at 37° C., 5% CO2 for 24 hours. After incubation 40 μL of Nano-Glo HiBiT Lytic Reagent (prepared according to the manufacturer protocol) were added to 40 μL of the cell culture medium present in each well. The plate content was briefly mixed (460 rpm) on an orbital shaker to ensure cell lysis. The plate was left at RT protected from light for another 10 min to stabilize the luminescent signal. The luminescence signal was measured using CLARIOstar Multimode Plate Reader. Focus and gain were adjusted to DMSO treated cells. The results were calculated as the NEK7-HiBiT % relative to the DMSO control of 3 technical replicates relative to the DMSO control.
HEK293 NEK7-HiBiT cells were treated with the compounds (conc. 0.1, 1 and 10 μM) or DMSO for 24 h. After incubation with compounds NEK7-HiBiT degradation was measured as a luminescence signal using CLARIOstar Multimode Plate reader.
Additionally, compounds reducing NEK7-HiBiT protein level by >=50% at 0.1 μM, were also identified.

[2] = biological target: T1, [NEK7]-[compound of formula (I)]-[CRBN/DDB1] complex; assay: HTRF ternary complex assay; type: binding; conditions: dose-response, 180 min at 25° C.; read-out: HTRF ternary complex Average pEC50 by molecule (converted)
Experimental: The effect of the molecular glue compounds of the invention on the formation of a ternary complex composed of [NEK7]-[compound of formula (I)]-[CRBN/DDB1] was investigated.
Mix solution of proteins and reagents was prepared: • 24 nM NEK7, 52.8 nM 6×His-CRBN/Strep-DDB1, 3 nM of Streptavidin-Eu cryptate […] and 6.67 nM of Anti-6×his-d2 […] was prepared in PPI Europium detection buffer (Cisbio) with 1 mM DTT.
The tested compounds in dose-response were dispensed onto a white 384-well low volume plate (Greiner, 784075). DMSO was backfilled to all wells, resulting in a final DMSO content of 0.5%. Wells containing only DMSO served as background.
The plate was sealed with transparent film and shaken using a VibroTurbulator for 60 sec at level 3.
The plate was then spun down shortly (10 s, 1000 rcf) and incubated at 25° C. for 180 min.
The read-out was performed with plate reader (Pherastar, BMG Labtech) in time resolved fluorescence mode. Filterset: TR 337 665 620.
The results were analyzed as follows: • 1) an average of fluorescence for background signal was calculated and used as a negative control; • 2) raw fluorescence values for tested compounds were normalized against negative controls; • 3) saturation curve was fitted to specific binding with Hill slope model; • 4) EC50 and pEC50 values were determined.

NEK7-HiBiT protein, sequence (Q8TDX7 whole entry): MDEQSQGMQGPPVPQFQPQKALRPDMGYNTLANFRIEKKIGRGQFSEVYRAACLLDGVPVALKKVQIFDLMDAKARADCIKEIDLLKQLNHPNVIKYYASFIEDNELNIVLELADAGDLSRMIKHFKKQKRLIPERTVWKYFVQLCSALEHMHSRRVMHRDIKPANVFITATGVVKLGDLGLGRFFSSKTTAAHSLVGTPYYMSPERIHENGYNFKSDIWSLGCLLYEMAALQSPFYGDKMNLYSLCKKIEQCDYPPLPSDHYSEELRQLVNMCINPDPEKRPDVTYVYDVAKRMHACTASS
NEK7-HiBiT protein, sequence (Q96SW2 whole entry, further chain): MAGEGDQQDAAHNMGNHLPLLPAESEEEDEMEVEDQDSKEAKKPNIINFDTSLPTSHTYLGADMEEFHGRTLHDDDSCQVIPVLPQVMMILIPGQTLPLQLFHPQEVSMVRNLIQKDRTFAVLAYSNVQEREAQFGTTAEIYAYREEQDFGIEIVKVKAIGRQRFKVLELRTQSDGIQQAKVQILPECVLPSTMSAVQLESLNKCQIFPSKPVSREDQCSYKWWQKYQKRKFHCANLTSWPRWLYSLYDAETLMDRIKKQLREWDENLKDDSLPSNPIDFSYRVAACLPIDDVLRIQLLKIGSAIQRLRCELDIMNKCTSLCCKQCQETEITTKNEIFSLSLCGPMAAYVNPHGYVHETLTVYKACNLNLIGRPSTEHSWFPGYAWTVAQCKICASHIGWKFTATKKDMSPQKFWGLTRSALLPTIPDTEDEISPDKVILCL
NEK7-HiBiT protein, sequence (Q16531 whole entry partner): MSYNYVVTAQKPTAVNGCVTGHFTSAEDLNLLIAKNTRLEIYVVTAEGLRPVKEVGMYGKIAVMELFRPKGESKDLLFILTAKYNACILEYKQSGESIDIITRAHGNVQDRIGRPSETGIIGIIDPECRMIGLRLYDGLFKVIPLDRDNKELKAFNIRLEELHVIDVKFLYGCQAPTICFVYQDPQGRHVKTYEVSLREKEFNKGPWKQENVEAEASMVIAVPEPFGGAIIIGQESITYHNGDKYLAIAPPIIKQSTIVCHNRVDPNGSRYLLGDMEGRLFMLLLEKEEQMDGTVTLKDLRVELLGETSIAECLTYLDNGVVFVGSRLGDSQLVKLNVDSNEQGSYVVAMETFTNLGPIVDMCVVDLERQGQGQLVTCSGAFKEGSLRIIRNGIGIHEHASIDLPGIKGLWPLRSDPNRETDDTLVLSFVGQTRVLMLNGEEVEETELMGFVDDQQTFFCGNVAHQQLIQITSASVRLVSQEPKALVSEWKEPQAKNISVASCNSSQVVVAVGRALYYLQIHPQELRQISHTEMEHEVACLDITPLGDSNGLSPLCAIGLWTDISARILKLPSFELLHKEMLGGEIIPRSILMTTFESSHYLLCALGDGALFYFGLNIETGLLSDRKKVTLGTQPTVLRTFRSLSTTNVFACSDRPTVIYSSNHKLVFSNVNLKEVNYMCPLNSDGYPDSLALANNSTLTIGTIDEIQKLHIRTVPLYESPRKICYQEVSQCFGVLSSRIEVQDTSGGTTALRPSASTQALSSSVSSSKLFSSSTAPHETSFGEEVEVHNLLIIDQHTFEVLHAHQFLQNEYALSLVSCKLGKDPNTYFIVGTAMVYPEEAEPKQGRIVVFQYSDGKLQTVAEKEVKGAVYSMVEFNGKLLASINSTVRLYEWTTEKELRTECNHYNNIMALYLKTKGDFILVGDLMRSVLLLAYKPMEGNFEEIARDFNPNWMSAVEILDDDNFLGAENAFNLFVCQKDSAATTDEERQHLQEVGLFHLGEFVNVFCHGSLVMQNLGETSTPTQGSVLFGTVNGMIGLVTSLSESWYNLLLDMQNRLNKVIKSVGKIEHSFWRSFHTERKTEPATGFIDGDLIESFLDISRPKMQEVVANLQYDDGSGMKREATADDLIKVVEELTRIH
T1 sequence (Q8TDX7 whole entry): as the sequence (Q8TDX7 whole entry) above
T1 sequence (Q96SW2 whole entry): as the sequence (Q96SW2 whole entry, further chain) above
T1 sequence (Q16531 whole entry partner): as the sequence (Q16531 whole entry partner) above

Row | Compound | activation at 1 µM [1] [%] | Levels of NEK7-HiBiT Protein (as a % of DMSO control) (NEK7-HiBiT protein) | EC50 [2] [µM] | Normalized AlphaLISA ternary complex average signal at 1 μM molecule [1]
1 | O=C1CCC(N2Cc3cc(C4CCC(NC(=O)c5ccccc5)CN4)ccc3C2=O)C(=O)N1 (stereo not drawn) [Compound 56, N-(6-(2-(2,6-dioxopiperidin-3-yl)-1-oxoisoindolin-5-yl)piperidin-3-yl)benzamide] | > 80 | A (Levels of NEK7-HiBiT Protein ≤ 25%) | < 0.1 | –
2 | O=C1CCC(N2Cc3cc(-c4ccccn4)sc3C2=O)C(=O)N1 (stereo not drawn) [30(2), 3-(6-oxo-2-(pyridin-2-yl)-4,6-dihydro-5H-thieno[2,3-c]pyrrol-5-yl)piperidine-2,6-dione] | < 10 | D (Levels of NEK7-HiBiT Protein ≥ 75%) | > 3.16 | –
3 | O=C1CCC(N2Cc3cc(C4CCCCO4)sc3C2=O)C(=O)N1 (stereo not drawn) [Compound 73, 3-(6-oxo-2-(tetrahydro-2H-pyran-2-yl)-4,6-dihydro-5H-thieno[2,3-c]pyrrol-5-yl)piperidine-2,6-dione] | < 10 | D (Levels of NEK7-HiBiT Protein ≥ 75%) | > 3.16 | –
4 | O=C1CCC(N2Cc3cc(C4CSCCN4)ccc3C2=O)C(=O)N1 (stereo not drawn) [Compound 57, 3-(1-oxo-5-(thiomorpholin-3-yl)isoindolin-2-yl)piperidine-2,6-dione] | 20 to 80 | C (Levels of NEK7-HiBiT Protein > 50% and <75%) | 0.1 to 0.316 | –
5 | O=C1CCC(N2Cc3cc(C4CCC(c5ccccc5)CO4)ccc3C2=O)C(=O)N1 (single isomer, unassigned) [74 Isomer 2, 3-(1-oxo-5-(5-phenyltetrahydro-2H-pyran-2-yl)isoindolin-2-yl)piperidine-2,6-dione] | – | A (Levels of NEK7-HiBiT Protein ≤ 25%) | 0.1 to 0.316 | A (Normalized activity > 80%)
6 | CC(=O)Nc1ccc(-c2ccc3c(c2)CN(C2CCC(=O)NC2=O)C3=O)nc1 (stereo not drawn) [7(2), N-(6-(2-(2,6-dioxopiperidin-3-yl)-1-oxoisoindolin-5-yl)pyridin-3-yl)acetamide] | > 80 | B (Levels of NEK7-HiBiT Protein > 25% and ≤50%) | 0.1 to 0.316 | –
7 | CCCCC1CCC(c2ccc3c(c2)CN(C2CCC(=O)NC2=O)C3=O)NC1 (mixture of isomers) [Compound 37, 3-(5-(5-butylpiperidin-2-yl)-1-oxoisoindolin-2-yl)piperidine-2,6-dione] | > 80 | B (Levels of NEK7-HiBiT Protein > 25% and ≤50%) | 0.1 to 0.316 | –
8 | CC1c2cc(-c3ccccn3)ccc2C(=O)N1C1CCC(=O)NC1=O (stereo not drawn) [24(2), 3-(3-methyl-1-oxo-5-(pyridin-2-yl)isoindolin-2-yl)piperidine-2,6-dione] | > 80 | A (Levels of NEK7-HiBiT Protein ≤ 25%) | 0.1 to 0.316 | –
9 | CN1CCNC(c2ccc3c(c2)CN(C2CCC(=O)NC2=O)C3=O)C1 (stereo not drawn) [Compound 67, 3-(5-(4-methylpiperazin-2-yl)-1-oxoisoindolin-2-yl)piperidine-2,6-dione] | 10 to 20 | B (Levels of NEK7-HiBiT Protein > 25% and ≤50%) | > 3.16 | –
10 | O=C1CCC(N2Cc3cc(-c4cc5ccccc5cn4)ccc3C2=O)C(=O)N1 (stereo not drawn) [6(2), 3-(5-(isoquinolin-3-yl)-1-oxoisoindolin-2-yl)piperidine-2,6-dione] | > 80 | B (Levels of NEK7-HiBiT Protein > 25% and ≤50%) | 0.1 to 0.316 | –
11 | O=C1CCC(N2C(=O)c3ccc(C4CCCCN4)c4cccc2c34)C(=O)N1 (stereo not drawn) [Compound 66, 3-(2-oxo-5-(piperidin-2-yl)benzo[cd]indol-1 (2H)-yl)piperidine-2,6-dione trifluoroacetate] | 10 to 20 | B (Levels of NEK7-HiBiT Protein > 25% and ≤50%) | 0.1 to 0.316 | –
12 | COc1ccc(-c2ccc3c(c2)CN(C2CCC(=O)NC2=O)C3=O)nc1 (stereo not drawn) [25(2), 3-(5-(5-methoxypyridin-2-yl)-1-oxoisoindolin-2-yl)piperidine-2,6-dione] | > 80 | A (Levels of NEK7-HiBiT Protein ≤ 25%) | 0.1 to 0.316 | –
13 | O=C1CCC(N2Cc3cc(N4CCCCN4)ccc3C2=O)C(=O)N1 (stereo not drawn) [Compound 58, 3-(1-oxo-5-(tetrahydropyridazin-1 (2H)-yl)isoindolin-2-yl)piperidine-2,6-dione] | 20 to 80 | C (Levels of NEK7-HiBiT Protein > 50% and <75%) | 0.1 to 0.316 | –
14 | CC(C)C1CCC(c2ccc3c(c2)CN(C2CCC(=O)NC2=O)C3=O)NC1 (single isomer, unassigned) [55 Isomer 1, 3-(5-(5-isopropylpiperidin-2-yl)-1-oxoisoindolin-2-yl)piperidine-2,6-dione] | – | C (Levels of NEK7-HiBiT Protein > 50% and <75%) | 0.316 to 1 | B (Normalized activity > 20% and <80%)
15 | O=C1CCC(N2Cc3cc(-c4ccc(C(F)(F)F)cn4)ccc3C2=O)C(=O)N1 (stereo not drawn) [16(2), 3-(1-oxo-5-(5-(trifluoromethyl)pyridin-2-yl)isoindolin-2-yl)piperidine-2,6-dione] | > 80 | A (Levels of NEK7-HiBiT Protein ≤ 25%) | 0.316 to 1 | –
16 | O=C1CCC(N2Cc3cc(C4CCCC(=O)N4)ccc3C2=O)C(=O)N1 (stereo not drawn) [Compound 42, 3-(1-oxo-5-(6-oxopiperidin-2-yl)isoindolin-2-yl)piperidine-2,6-dione] | < 10 | D (Levels of NEK7-HiBiT Protein ≥ 75%) | > 3.16 | –

— US20260151403A1, “NEK7 DEGRADERS AND METHODS OF USE THEREOF” (Captor Therapeutics S.A., priority 2022, published 2026)
